Data as given in patent US9220243B2, “Models of atherosclerosis, hyperlipidemia, lipoprotein oxidation and blood vessel inflammation and methods for making and using them” (THE REGENTS OF THE UNIVERSITY OF CALIFORNIA, priority 2006, dated 2015).

Tested on: Fli:EGFP zebrafish larvae
Experiment: High fat diet zebrafish larvae model with fluorescent cholesterol ester, ezetimibe added to the tank water, confocal imaging
Assay type: in vivo, zebrafish (Danio rerio)
Conditions: 10 days on high fat diet with fluorescent (red) cholesterol ester
Method: Spray cholesterol (4% in ether) on the fish food, let it dry for 2 hours in a fume hood. Collect and keep at 4° C. Feed the fish with high-cholesterol food for 7 days to 8 weeks.
To visualize the lipid in larvae zebrafish, add to the cholesterol ether solution 10 μg/ml of cholesteryl BODIPY 576/589 C11 (Invitrogen, C12681). […] Feed fli:EGFP zebrafish with this high-cholesterol diet for one week.
Use a fluorescent confocal microscope to image dorsal aorta of a fli:EGFP zebrafish (wild type or ApoE knockdown) that was placed on a high-cholesterol diet, and compare with a control zebrafish that was fed a normal diet.
Visualize using a C1si confocal microscope: • endothelial cell morphology and the morphology of the vessel • accumulation of fluorescent lipid in the artery wall
FIG. 5. Ezetimibe reduces cholesterol absorption in zebrafish intestine (A) and prevents vascular damage (B). Fli:EGFP zebrafish larvae were feeding for 10 days on high fat diet with a fluorescent (red) cholesterol ester, with or without the addition of ezetimibe in the tank water. Ezetimibe, or (3R,4S)-1-(4-fluorophenyl)-3-((3S)-3-(4-fluorophenyl)-3-hydroxypropyl)-4-(4-hydroxyphenyl)-2-azetidinone, is an FDA-approved medicine (marketed as ZETIA™), which inhibits the absorption of cholesterol by the small intestine. […] Remarkably, ezetimibe rescued blood vessels from high fat diet-induced damage.

## O=C1[C@H](CC[C@H](O)c2ccc(F)cc2)[C@@H](c2ccc(O)cc2)N1c1ccc(F)cc1 [Ezetimibe, (3R,4S)-1-(4-fluorophenyl)-3-((3S)-3-(4-fluorophenyl)-3-hydroxypropyl)-4-(4-hydroxyphenyl)-2-azetidinone]
FIG. 5(A)
  level of cholesterol accumulated in the digestive system (intensity of red fluorescence): considerably reduced a level of cholesterol accumulated in the digestive system
FIG. 5(B)
  pathological changes in the endothelial layer morphology inflicted by high fat diet (vascular damage): prevented pathological changes in the endothelial layer morphology
